# PMC11240954 (International Journal of Molecular Sciences, 2024)
# Where two headings read alike, the source gives them in different places. Peptide text beside a SMILES is read from it.
# Experiments:
# [1] = tested on: Murine Norovirus-1
# [2] = tested on: Vero cells; details: African green monkey
# [3] = tested on: MDCK cells; details: dog
# [4] = tested on: Influenza A Virus (H3N2)
# [5] = tested on: Human Adenovirus-5
# [6] = tested on: Influenza A Virus (H1N1)
# [7] = tested on: adenovirus; details: 111 µM LL-37 ref 60; cited from earlier work
# [8] = in vitro; details: dog
# [9] = in vitro; details: African green monkey
# [10] = tested on: Human Adenovirus-5; experiment: microbe, parasite or virus in culture; details: Human mastadenovirus C, Vero, 3 h, read-out: IC50 Human Adenovirus-5/Vero
# [11] = tested on: Influenza A Virus (H1N1); experiment: microbe, parasite or virus in culture; details: H1N1, MDCK, 3 h, read-out: IC50 Influenza A Virus (H1N1)/MDCK
# [12] = tested on: Murine Norovirus-1; experiment: microbe, parasite or virus in culture; details: Norwalk virus, in Mus musculus, 3 h, read-out: IC50 Murine Norovirus-1/Raw 246.7
# [13] = tested on: Influenza A Virus (H3N2); experiment: microbe, parasite or virus in culture; details: H3N2, MDCK, 3 h, read-out: IC50 Influenza A Virus (H3N2)/MDCK
# [14] = tested on: H1N1; experiment: Transmission electron microscopy of treated virus; parameters: species or system influenza virus H1N1 A/PR/8/34; details: TEM, 2 h exposure; untreated 120 nm
# Protocol: (§1) The viruses were exposed to the peptide/mimics for 2 h at 37 °C. Following this, 10 µL of the treated mixture was applied onto a glow-discharged carbon-coated 200 mesh copper grid and left to evaporate for 5 min. Subsequently, the sample was stained with 2% phosphotungstic acid (pH 4.5) for 1 min to enhance contrast. After air-drying, the grids were examined using an FEI Tecnai G2 20 transmission electron microscope (TEM).
# [15] = tested on: H3N2 virus; experiment: Transmission electron microscopy of treated virus; parameters: species or system influenza virus H3N2 A/Hong Kong/8/68; details: 2 h exposure
# Protocol: as §1
# [16] = Circular dichroism conformational analysis; type: physicochemical; details: 125, 250, 500 µM
# Protocol: Circular dichroism (CD) analysis was conducted using the Jasco J-1500 spectropolarimeter to assess the secondary structure of peptides and mimics. The samples were placed in a quartz cuvette with a path length of 0.1 cm (Fisher brand, Thermo Fisher Scientific Aust Pty Ltd.). Spectra were recorded in the range of 185–260 nm at a scan speed of 200 nm/min, averaging 4 scans. The impact of the solvents milliQ water or 30 mM SDS on Mel4 and mimic 758 was evaluated at three concentrations: 500 µM, 250 µM, and 125 µM. Data were averaged, and the spectrum of a sample-free control was subtracted.
# [17] = read-out: IC50 Human Adenovirus-5/Vero
compound,measurement,setting,value
NCCCCC(N)C(=O)NCCNC(=O)C(Cc1c[nH]c2ccccc12)NC(=O)c1cc(Br)ccc1NC(=O)c1ccc(-c2ccccc2)cc1 (stereo not drawn) [4-BIPL],IC50,[1]; read-out: IC50 Murine Norovirus-1/Raw 246.7,> 62.5 µM
same,CC50,[2],38.8 µM
same,CC50,[3],12.8 µM
same,SI Influenza A Virus (H3N2)/MDCK,[4],1.2
same,IC50,[4]; read-out: IC50 Influenza A Virus (H3N2)/MDCK,10.4 µM
same,IC50,[5]; [17],> 62.5 µM
same,SI Influenza A Virus (H1N1)/MDCK,[6],1.2
same,IC50,[6]; read-out: IC50 Influenza A Virus (H1N1)/MDCK,10.3 µM
"CC[C@H](C)[C@H](NC(=O)[C@H](CCCCN)NC(=O)[C@H](CCC(=O)O)NC(=O)[C@H](CCCCN)NC(=O)[C@H](CO)NC(=O)[C@H](CCCCN)NC(=O)[C@H](CCCNC(=N)N)NC(=O)[C@H](Cc1ccccc1)NC(=O)[C@H](Cc1ccccc1)NC(=O)[C@H](CC(=O)O)NC(=O)CNC(=O)[C@H](CC(C)C)NC(=O)[C@@H](N)CC(C)C)C(=O)NCC(=O)N[C@@H](CCCCN)C(=O)N[C@@H](CCC(=O)O)C(=O)N[C@@H](Cc1ccccc1)C(=O)N[C@@H](CCCCN)C(=O)N[C@@H](CCCNC(=N)N)C(=O)N[C@H](C(=O)N[C@H](C(=O)N[C@@H](CCC(N)=O)C(=O)N[C@@H](CCCNC(=N)N)C(=O)N[C@H](C(=O)N[C@@H](CCCCN)C(=O)N[C@@H](CC(=O)O)C(=O)N[C@@H](Cc1ccccc1)C(=O)N[C@@H](CC(C)C)C(=O)N[C@@H](CCCNC(=N)N)C(=O)N[C@@H](CC(N)=O)C(=O)N[C@@H](CC(C)C)C(=O)N[C@H](C(=O)N1CCC[C@H]1C(=O)N[C@@H](CCCNC(=N)N)C(=O)N[C@H](C(=O)N[C@@H](CCC(=O)O)C(=O)N[C@@H](CO)C(=O)O)[C@@H](C)O)C(C)C)[C@@H](C)CC)C(C)C)[C@@H](C)CC [LL-37, reference compound]",IC50,[1]; 3 h,4.2 µM
same,effect on adenovirus,[7],no effect
same,IC50,"[4]; Virus, 3 h",> 500 µM
same,IC50 Human Adenovirus-5/Vero,[5],no activity
same,IC50,[5]; 3 h,> 125 µM
same,IC50,"[6]; Virus, 3 h",> 500 µM
N=C(N)NCCC[C@H](NC(=O)[C@H](CCCNC(=N)N)NC(=O)[C@H](CCCNC(=N)N)NC(=O)[C@H](CCCNC(=N)N)NC(=O)CNC(=O)CNC(=O)[C@H](CCCNC(=N)N)NC(=O)[C@H](CCCNC(=N)N)NC(=O)[C@H](CCCNC(=N)N)NC(=O)[C@H](CCCNC(=N)N)NC(=O)[C@H](CCCNC(=N)N)NC(=O)[C@H](CCCNC(=N)N)NC(=O)[C@H](CCCCN)NC(=O)[C@H](CCCNC(=N)N)NC(=O)[C@H](CCCCN)NC(=O)[C@H](CC(N)=O)NC(=O)[C@@H](N)CCCCN)C(=O)O [Mel4] (H-KNKRKRRRRRRGGRRRR-OH),IC50,[1]; 3 h,8.6 µM
same,CC50,[8],12.7 µM
same,CC50 at 24 h,[9],47.6 µM
same,IC50,"[4]; Virus, 3 h",> 500 µM
same,IC50,[5]; 3 h,47.4 µM
same,IC50,"[6]; Virus, 3 h",> 500 µM
CC[C@H](C)[C@H](NC(=O)[C@H](Cc1c[nH]c2ccccc12)NC(=O)[C@H](CO)NC(=O)[C@@H](NC(=O)[C@H](CC(C)C)NC(=O)[C@@H](N)[C@@H](C)O)[C@@H](C)CC)C(=O)N[C@@H](CCCCN)C(=O)N[C@@H](CC(N)=O)C(=O)N[C@@H](CCCCN)C(=O)N[C@@H](CCCNC(=N)N)C(=O)N[C@@H](CCCCN)C(=O)N[C@@H](CCC(N)=O)C(=O)N[C@@H](CCCNC(=N)N)C(=O)N1CCC[C@H]1C(=O)N[C@@H](CCCNC(=N)N)C(=O)N[C@H](C(=O)N[C@@H](CO)C(=O)N[C@@H](CCCNC(=N)N)C(=O)N[C@@H](CCCNC(=N)N)C(=O)N[C@@H](CCCNC(=N)N)C(=O)N[C@@H](CCCNC(=N)N)C(=O)N[C@@H](CCCNC(=N)N)C(=O)N[C@@H](CCCNC(=N)N)C(=O)NCC(=O)NCC(=O)N[C@@H](CCCNC(=N)N)C(=O)N[C@@H](CCCNC(=N)N)C(=O)N[C@@H](CCCNC(=N)N)C(=O)N[C@@H](CCCNC(=N)N)C(=O)O)C(C)C [Melimine] (H-TLISWIKNKRKQRPRVSRRRRRRGGRRRR-OH),IC50,[1]; 3 h,4.8 µM
same,CC50,[8],28.1 µM
same,CC50 at 24 h,[9],14.5 µM
same,IC50,"[4]; Virus, 3 h",> 500 µM
same,IC50,[5]; 3 h,> 125 µM
same,IC50,"[6]; Virus, 3 h",> 500 µM
NCCCCC(N)C(=O)NCCNC(=O)C(Cc1c[nH]c2ccccc12)NC(=O)c1cc(Br)ccc1NC(=O)c1ccc2ccccc2c1 (stereo not drawn) [NAPL],IC50,[10],59.3 µM
same,CC50,[8]; CC50 (H1N1/MDCK),112 µM
same,CC50,[8]; CC50 (H3N2/MDCK),112 µM
same,IC50,[11],10.5 µM
same,SI Influenza A Virus (H3N2)/MDCK,[4],10.6
same,IC50,[12],> 62.5 µM
same,IC50,[13],10.5 µM
same,SI Influenza A Virus (H1N1)/MDCK,[6],10.6
NCCNC(=O)C(Cc1c[nH]c2ccccc12)NC(=O)c1cc(-c2ccccc2-c2ccccc2)ccc1N (stereo not drawn) [Sau-22],IC50,[10],> 62.5 µM
same,CC50,[8]; CC50 (H1N1/MDCK),79.4 µM
same,CC50,[8]; CC50 (H3N2/MDCK),79.4 µM
same,IC50,[11],6.93 µM
same,SI Influenza A Virus (H3N2)/MDCK,[4],14.8
same,IC50,[12],> 62.5 µM
same,IC50,[13],5.34 µM
same,SI Influenza A Virus (H1N1)/MDCK,[6],11.4
NCCNC(=O)C(Cc1c[nH]c2ccccc12)NC(=O)c1cc(-c2ccc3ccccc3c2)ccc1N (stereo not drawn) [compound 610],average particle size of the virus after treatment,[14],48 nm
same,IC50,[10],> 62.5 µM
same,CC50,[8]; CC50 (H1N1/MDCK),33.3 µM
same,CC50,[8]; CC50 (H3N2/MDCK),33.3 µM
same,effect on virus particle (TEM),[15],reduction in size and disruption to the envelop and spike proteins
same,IC50,[11],2.35 µM
same,SI Influenza A Virus (H3N2)/MDCK,[4],9
same,IC50,[12],> 62.5 µM
same,IC50,[13],3.7 µM
same,SI Influenza A Virus (H1N1)/MDCK,[6],14.1
NCCNC(=Nc1ccccc1)NCCNC(=O)C(Cc1c[nH]c2ccccc12)NC(=O)c1cc(Br)ccc1NC(=O)c1ccc2ccccc2c1 (stereo not drawn) [compound 758],IC50,[10],> 62.5 µM
same,CC50,[8]; CC50 (H1N1/MDCK),147 µM
same,CC50,[8]; CC50 (H3N2/MDCK),147 µM
same,secondary structure by CD in SDS,[16]; 30 mM SDS (membrane mimetic),beta sheet-like structure
same,secondary structure by CD in water,[16]; milliQ water,beta sheet-like structure
same,IC50,[11],12.3 µM
same,SI Influenza A Virus (H3N2)/MDCK,[4],15.8
same,IC50,[12],> 62.5 µM
same,IC50,[13],9.3 µM
same,SI Influenza A Virus (H1N1)/MDCK,[6],11.9
NCCN=C(NCCN)NCCNC(=O)C(Cc1c[nH]c2ccccc12)NC(=O)c1cc(Br)ccc1NC(=O)c1ccc2ccccc2c1 (stereo not drawn) [compound 1083],IC50,[10],47.2 µM
same,CC50,[8]; CC50 (H1N1/MDCK),250 µM
same,CC50,[8]; CC50 (H3N2/MDCK),250 µM
same,IC50,[11],28.5 µM
same,SI Influenza A Virus (H3N2)/MDCK,[4],9.05
same,IC50,[5]; [17],45.1 µM
same,IC50,[12],> 62.5 µM
same,IC50,[13],27.7 µM
same,SI Influenza A Virus (H1N1)/MDCK,[6],8.7
N=C(N)NCCNC(=O)C(Cc1ccccc1)NC(=O)c1cc(Br)ccc1NC(=O)c1ccc2ccccc2c1 (stereo not drawn) [compound 1091],IC50,[10],> 62.5 µM
same,CC50,[8]; CC50 (H1N1/MDCK),128 µM
same,CC50,[8]; CC50 (H3N2/MDCK),128 µM
same,IC50,[11],23.1 µM
same,SI Influenza A Virus (H3N2)/MDCK,[4],5.2
same,IC50,[12],> 62.5 µM
same,IC50,[13],24.3 µM
same,SI Influenza A Virus (H1N1)/MDCK,[6],5.5
NCCNC(=Nc1ccccc1)NCCNC(=O)C(Cc1ccccc1)NC(=O)c1cc(Br)ccc1NC(=O)c1ccc2ccccc2c1 (stereo not drawn) [compound 1096],IC50,[10],> 62.5 µM
same,CC50,[8]; CC50 (H1N1/MDCK),47.2 µM
same,CC50,[8]; CC50 (H3N2/MDCK),47.2 µM
same,IC50,[11],22.2 µM
same,SI Influenza A Virus (H3N2)/MDCK,[4],1.9
same,IC50,[12],> 62.5 µM
same,IC50,[13],24 µM
same,SI Influenza A Virus (H1N1)/MDCK,[6],2.1
